IC50 and DC50 data for 18 molecules are collected here from EP4624466A1, “DEGRADER FOR DECOMPOSING CMET PROTEIN, AND PHARMACEUTICAL COMPOSITION COMPRISING SAME” (Innocure Therapeutics, Inc., priority 2022, dated 2024).

Like-named read-outs stand apart in the source and are kept apart here.

Experiment [1] has as its system SNU-638. The experiment is described as follows: Cell viability / antiproliferative assay (WST-8), SNU-638. Type of experiment: cell-based, human. The note with it: SNU-638 cells, 72 hours, WST-8; Table 2; read-out: SNU-638 IC50.
Experimental: (§1) c-MET overexpressing human gastric cancer cell lines [MKN45] and [SNU638] were cultured in RPMI medium with 10% fetal bovine serum, penicillin (100U/ml), and streptomycin (100mg/ml), and c-MET exon 14 skipping mutant human gastric cancer cell lines [Hs746T] were cultured in DMEM media. The c-MET overexpressing human lung cancer cell line EBC-1 was cultured in MEM media with the addition of 10% fetal bovine serum, penicillin (100U/ml), and streptomycin (100mg/ml). […] The compound synthesized in accordance with the present invention was prepared with a raw material solution of 10 mM dissolved in DMSO (dimethyl sulfoxide), and was sequentially diluted and processed.
(§2) In order to observe the inhibitory activity on cell growth, cells were dispensed in a 96-well plate at a concentration of 5,000 cells/well, and then treated with the compound prepared at various concentrations for 72 hours. The viability of the cells was calculated using GraphicPad Prism 8.0 software by adding 10 ml per well of WST-8 (water soluble tetrazolium salt) sample, which reacts with dehydrogenase present in the electron transport system of mitochondria to produce formazon, incubated for 2 hours, and measured absorbance at 450 nm.
The subject of experiment [2] is MKN-45. Description: Cell viability / antiproliferative assay (WST-8), MKN-45.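 Further: MKN-45 is a human gastric cancer line overexpressing c-MET, growth inhibition read as WST-8 formazan absorbance at 450 nm after 2 h dye incubation.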 The note with it: read-out: MKN-45 IC50.
Experimental: as §1, §2
For experiment [3], the target named is c-MET (Homo sapiens, UniProt P08581). Description: c-MET protein degradation (Simple Western), MKN-45. Also on record: assess the resolution of the compound of the present invention for c-MET expressed in cells; endogenous in cells; host or cells: MKN45 (human gastric cancer). The conditions noted are these: c-MET overexpressing gastric cancer cell line MKN-45, treated 24 hours. Type of experiment: cell-based. On the procedure: In order to assess the resolution of the compound of the present invention for c-MET expressed in cells, cells were dispensed in a 12-well plate at a concentration of 2 × 10^5 cells/well, and then gastric cancer cell lines were treated with samples for 24 hours and lung cancer cell lines were treated for 48 hours. Cell lysates were collected using a scraper on ice, centrifuged at 4°C15,000 rpm for 30 min to obtain a protein-containing supernatant. Protein expression was then measured using the Simple Western Automated Western Blot System Abby instrument using 3 µg of protein for each sample. SDS and heat-induced denaturation proteins were separated by molecular weight, attached to capillary, reacted with anti-c-MET or anti-GAPDH antibodies, which are primary antibodies, and then reacted with HRP-conjugated secondary antibodies, and analyzed the protein expression signal with compass software. Protein expression was normalized based on the expression value of GAPDH, and protein development in each sample was measured as a percentage (%) based on 100% of samples treated with 0.1% DMSO carriers, and DC50 (concentration of a compound where 50% protein inhibition is achieved) was calculated from the change in protein expression amount due to compound treatment.

[4] abbreviates: MKN-45 cells, 72 hours, WST-8, Table 1.

Sequence of c-MET (P08581 25-1390): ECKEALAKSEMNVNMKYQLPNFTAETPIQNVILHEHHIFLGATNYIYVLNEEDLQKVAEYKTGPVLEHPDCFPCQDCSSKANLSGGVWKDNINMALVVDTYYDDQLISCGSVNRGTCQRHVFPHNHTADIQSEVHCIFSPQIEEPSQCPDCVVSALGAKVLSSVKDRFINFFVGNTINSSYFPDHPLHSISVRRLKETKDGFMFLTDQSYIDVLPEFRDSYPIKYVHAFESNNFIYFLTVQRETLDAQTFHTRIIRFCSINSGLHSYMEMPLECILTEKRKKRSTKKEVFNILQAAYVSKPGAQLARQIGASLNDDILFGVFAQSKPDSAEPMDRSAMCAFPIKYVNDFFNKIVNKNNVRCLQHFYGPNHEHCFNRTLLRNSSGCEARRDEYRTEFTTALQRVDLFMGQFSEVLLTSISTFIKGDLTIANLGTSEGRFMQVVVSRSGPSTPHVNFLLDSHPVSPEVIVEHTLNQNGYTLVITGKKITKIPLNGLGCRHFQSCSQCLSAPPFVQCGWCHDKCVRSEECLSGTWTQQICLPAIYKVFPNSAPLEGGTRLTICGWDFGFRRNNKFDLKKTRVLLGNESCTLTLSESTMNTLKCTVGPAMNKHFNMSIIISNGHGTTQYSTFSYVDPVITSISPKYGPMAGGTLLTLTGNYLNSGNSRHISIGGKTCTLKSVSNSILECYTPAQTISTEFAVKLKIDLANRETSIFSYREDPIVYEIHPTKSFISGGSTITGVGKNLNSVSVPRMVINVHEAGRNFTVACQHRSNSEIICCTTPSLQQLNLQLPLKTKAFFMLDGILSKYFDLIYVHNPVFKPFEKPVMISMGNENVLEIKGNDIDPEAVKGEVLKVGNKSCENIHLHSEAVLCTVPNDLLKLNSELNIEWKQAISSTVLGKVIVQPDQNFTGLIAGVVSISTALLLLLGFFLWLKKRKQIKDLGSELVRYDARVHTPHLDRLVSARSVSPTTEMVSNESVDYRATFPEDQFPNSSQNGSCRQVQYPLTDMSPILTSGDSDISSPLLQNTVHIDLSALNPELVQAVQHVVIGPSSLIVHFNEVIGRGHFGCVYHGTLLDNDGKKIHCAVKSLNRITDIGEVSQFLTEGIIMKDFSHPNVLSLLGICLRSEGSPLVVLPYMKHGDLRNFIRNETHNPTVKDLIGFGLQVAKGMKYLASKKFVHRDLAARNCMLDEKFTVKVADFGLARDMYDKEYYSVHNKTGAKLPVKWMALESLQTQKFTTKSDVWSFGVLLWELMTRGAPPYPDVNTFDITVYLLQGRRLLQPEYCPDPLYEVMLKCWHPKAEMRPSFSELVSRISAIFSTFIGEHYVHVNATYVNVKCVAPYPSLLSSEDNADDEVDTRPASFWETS

Regarding `N#Cc1cccc(-c2ccc(=O)n(Cc3cccc(-c4ncc(OCC5CCN(CCCC#Cc6ccc7c(=O)n(C8CCC(=O)NC8=O)ncc7c6)CC5)cn4)c3)n2)c1` (stereo not drawn) [ICT-0001305], the IC50 in experiment [1] is less than 100 nM. Still for that read-out and setting: next, `Cc1nn(C2CCC(=O)NC2=O)c(=O)c2ccc(N3CCN(C[C@@H]4CN(CCN5CCC(COc6cnc(-c7cccc(Cn8nc(-c9cccc(C#N)c9)ccc8=O)c7)nc6)CC5)CCO4)CC3)cc12` (stereo partly drawn) [ICT-0001315]: less than 100 nM; `Cc1cc2c(=O)n(C3CCC(=O)NC3=O)nc(C)c2cc1N1CCN(CC2CCN(CCN3CCC(COc4cnc(-c5cccc(Cn6nc(-c7cccc(C#N)c7)ccc6=O)c5)nc4)CC3)CC2)CC1` (stereo not drawn) [ICT-0001319]: less than 100 nM. As for `Cc1nn(C2CCC(=O)NC2=O)c(=O)c2ccc(N3CCN(C(=O)CN4CCC(COc5cnc(-c6cccc(Cn7nc(-c8cccc(C#N)c8)ccc7=O)c6)nc5)CC4)CC3)cc12` (stereo not drawn) [ICT-0001177, 3-(1-{[3-(5-{[1-(2-{4-[2-(2,6-dioxopiperidin-3-yl)-4-methyl-1-oxo-1,2-dihydropthalazine-6-yl]piperazine-1-yl}-2-oxoethyl)piperidine-4-yl]methoxy}pyrimidine-2-yl)phenyl]methyl}-6-oxo-1,6-dihydropyridazine-3-yl)benzonitrile], the IC50 in experiment [2] (Homo sapiens, MKN-45, 72 h) was less than 100 nM. The molecule also returned a DC50 in experiment [3] (Table 2) of less than 100 nM.

Consider `N#Cc1cccc(-c2ccc(=O)n(Cc3cccc(-c4ncc(OCC5CCN(C(=O)CCN6CCN(c7ccc8c(=O)n(C9CCC(=O)NC9=O)ncc8c7)CC6)CC5)cn4)c3)n2)c1` (stereo not drawn) [ICT-0001199, 3-(1-{[3-(5-{[1-(3-{4-[2-(2,6-dioxopiperidin-3-yl)-1-oxo-1,2-dihydropthalazine-6-yl]piperazine-1-yl}propanoyl)piperidine-4-il]methoxy}pyrimidin-2-yl)phenyl]methyl}-6-oxo-1,6-dihydropyridazine-3-yl)benzonitrile], for which the IC50 in experiment [2] (Homo sapiens, MKN-45, 72 h) is less than 100 nM. Besides, the DC50 in experiment [3] (Table 2) was less than 100 nM.

As for `Cc1nn(C2CCC(=O)NC2=O)c(=O)c2ccc(N3CCC(CN4CCN(C(=O)CN5CCC(COc6cnc(-c7cccc(Cn8nc(-c9cccc(C#N)c9)ccc8=O)c7)nc6)CC5)CC4)CC3)cc12` (stereo not drawn) [ICT-0001236], the IC50 in experiment [2] (Homo sapiens, MKN-45, 72 h) is less than 100 nM. In addition, in experiment [3] (Table 2), the DC50 is less than 100 nM. In the case of `Cc1nn(C2CCC(=O)NC2=O)c(=O)c2ccc(N3CCN(CCCC(=O)N4CCC(COc5cnc(-c6cccc(Cn7nc(-c8cccc(C#N)c8)ccc7=O)c6)nc5)CC4)CC3)cc12` (stereo not drawn) [ICT-0001175, 3-(1-(3-(5-((1-(4-(4-(2-(2,6-dioxopiperidine-3-yl)-4-methyl-1-oxo-1,2-dihydropthalazine-6-yl)piperazine-1-yl)butanoyl)piperidine-4-il)methoxy)pyrimidine-2-yl)benzyl)6-oxo-1,6-dihydropyridazine-3-yl)benzonitrile], the IC50 in experiment [2] (Homo sapiens, MKN-45, 72 h) is less than 100 nM. In experiment [3] (Table 2), the DC50 was less than 100 nM. `N#Cc1cccc(-c2ccc(=O)n(Cc3cccc(-c4ncc(OCC5CCN(C(=O)CCCN6CCN(c7ccc8c(=O)n(C9CCC(=O)NC9=O)ncc8c7)CC6)CC5)cn4)c3)n2)c1` (stereo not drawn) [ICT-0001200]: in experiment [2] (Homo sapiens, MKN-45, 72 h), the IC50 is less than 100 nM. Moreover, the DC50 in experiment [3] (Table 2) is less than 100 nM. For the molecule `N#Cc1cccc(-c2ccc(=O)n(Cc3cccc(-c4ncc(OCC5CCN(C(=O)COCCOCCNc6ccc7c(=O)n(C8CCC(=O)NC8=O)ncc7c6)CC5)cn4)c3)n2)c1` (stereo not drawn) [ICT-0000986], the IC50 in experiment [2] (Homo sapiens, MKN-45, 72 h) was less than 100 nM. In addition, the DC50 in experiment [3] (Table 2) was less than 100 nM.

On to `N#Cc1cccc(-c2ccc(=O)n(Cc3cccc(-c4ncc(OCC5CCN(C(=O)CCCCCCNc6ccc7c(=O)n(C8CCC(=O)NC8=O)ncc7c6)CC5)cn4)c3)n2)c1` (stereo not drawn) [ICT-0000985, 3-(1-{[3-(5-{[1-(7-{[2-(2,6-dioxopiperidin-3-yl)-1-oxo-1,2-dihydropthalazine-6-yl]amino}heptanoyl)piperidine-4-il]methoxy}pyrimidine-2-yl)phenyl]methyl}-6-oxo-1,6-dihydropyridazine-3-yl)benzonitrile], for which, in experiment [2] (Homo sapiens, MKN-45, 72 h), the IC50 is less than 100 nM. The molecule further gave a DC50 in experiment [3] (Table 2) of less than 100 nM. Regarding `N#Cc1cccc(-c2ccc(=O)n(Cc3cccc(-c4ncc(OCC5CCN(C(=O)CCCCN6CCN(c7ccc8c(=O)n(C9CCC(=O)NC9=O)ncc8c7)CC6)CC5)cn4)c3)n2)c1` (stereo not drawn) [ICT-0001201, 3-(1-{[3-(5-{[1-(5-{4-[2-(2,6-dioxopiperidin-3-yl)-1-oxo-1,2-dihydropetalazine-6-yl]piperazine-1-yl}pentanoyl)piperidine-4-il]methoxy}pyrimidine-2-yl)phenyl]methyl}6-oxo-1,6-dihydropyridazine-3-yl)benzonitrile], the IC50 in experiment [2] (Homo sapiens, MKN-45, 72 h) was less than 100 nM. Moreover, the DC50 in experiment [3] (Table 2) is less than 100 nM.

In the case of `Cc1nn(C2CCC(=O)NC2=O)c(=O)c2cc(N3CCN(C(=O)CCCCN4CCC(COc5cnc(-c6cccc(Cn7nc(-c8cccc(C#N)c8)ccc7=O)c6)nc5)CC4)CC3)ccc12` (stereo not drawn) [ICT-0001251], the IC50 in experiment [2] (Homo sapiens, MKN-45, 72 h) was less than 100 nM. This molecule also came in with a DC50 in experiment [3] (Table 2) of less than 100 nM. As for `Cn1cc(-c2cnc3c(nnn3C[C@@H]3CN(c4ncc(-c5ccc(CN6CCN(C(=O)CN7CCN(c8ccc9c(=O)n(C%10CCC(=O)NC%10=O)ncc9c8)CC7)CC6)cc5)cn4)CCO3)n2)cn1` (stereo partly drawn) [ICT-0001109], the IC50 in experiment [2] (Homo sapiens, MKN-45, 72 h) is less than 100 nM. Besides, the DC50 in experiment [3] (Table 1) is less than 100 nM.

Take `Cc1nn(C2CCC(=O)NC2=O)c(=O)c2cc(N3CCC(CN4CCN(CC(=O)N5CCC(COc6cnc(-c7cccc(Cn8nc(-c9cccc(C#N)c9)ccc8=O)c7)nc6)CC5)CC4)CC3)ccc12` (stereo not drawn) [ICT-0001239]: in experiment [2] (Homo sapiens, MKN-45, 72 h), the IC50 is less than 100 nM. Further, in experiment [3] (Table 2), the DC50 was less than 100 nM. With `N#Cc1cccc(-c2ccc(=O)n(Cc3cccc(-c4ncc(OCC5CCN(CCCCC(=O)N6CCN(c7ccc8c(=O)n(C9CCC(=O)NC9=O)ncc8c7)CC6)CC5)cn4)c3)n2)c1` (stereo not drawn) [ICT-0001252], in experiment [2] (Homo sapiens, MKN-45, 72 h), the IC50 is less than 100 nM. The molecule also showed a DC50 in experiment [3] (Table 2) of less than 100 nM.

Take `Cc1nn(C2CCC(=O)NC2=O)c(=O)c2ccc(N3CCO[C@H](CN4CCN(CC(=O)N5CCC(COc6cnc(-c7cccc(Cn8nc(-c9cccc(C#N)c9)ccc8=O)c7)nc6)CC5)CC4)C3)cc12` (stereo partly drawn) [ICT-0001229]: in experiment [2] (Homo sapiens, MKN-45, 72 h), the IC50 was less than 100 nM. Further, the DC50 in experiment [3] (Table 2) was less than 100 nM.

With `Cn1cc(-c2cnc3c(nnn3C[C@@H]3CN(c4ncc(-c5ccc(CN6CCN(C(=O)COCCOCCOCCOCCNc7ccc8c(=O)n(C9CCC(=O)NC9=O)ncc8c7)CC6)cc5)cn4)CCO3)n2)cn1` (stereo partly drawn) [ICT-0000939, 3-[6-(15-{4-[(4-{2-[(2S)-2-{[5-(1-methyl-1H-pyrazole-4-yl)-1H-[1,2,3]triazolo[4,5-b]pyrazine-1-yl]methyl}morpholine-4-il]pyrimidine-5-yl}phenyl)methyl]piperazine-1-yl}-15-oxo-4,7,10,13-tetraoxa-1-azpentadecan-1-yl)-1-oxo-1,2-dihydroptalazine-2-yl]piperidin-2,6-dione], in experiment [2] (setting [4]), the IC50 lay within 100 to 1000 nM. Moreover, the DC50 in experiment [3] (Table 1) is greater than 1000 nM.

Regarding “3-(6-(4-((1-(4-(1-(2-((S)-2-((5-(1-methyl-1H-pyrazole-4-yl)-1H-[1,2,3]triazolo[4,5-b]pyrazine-1-yl)methyl)morpholino)pyrimidine-5-il)benzyl)piperidine-4-il)methyl)piperazine-1-yl)piperazine-1-yl)1-oxopthalazine-2(1H)-yl)piperidine-2,6-dione [ICT-0000978]”, the IC50 in experiment [2] (setting [4]) is less than 100 nM. Further, the DC50 in experiment [3] (Table 1) was 100 to 1000 nM.
